Laboratory results from ChEMBL document CHEMBL5356975, “Brønsted Acid-Mediated Conversion of Naturally Abundant Lathyrane Diterpenes: Are Rare 10,11-seco-Lathyrane Diterpenes Artifacts?” (J Nat Prod, 2024).
Activity calls are given as the source filed them. No cut-off for these calls is given here.

What was measured:
[1] = test system: BV-2; assay: Cytotoxicity against mouse BV-2 cells assessed as reduction in cell viability at 20 uM incubated for 24 hrs by MTT assay; assay type: toxicity, cell-based; conditions: bv-2, 24 h
[2] = test system: BV-2; assay: Antineuroinflammatory activity in LPS induced mouse BV-2 cells assessed as inhibition of NO production pretreated for 4 hrs followed by LPS addition and measured after 24 hrs by griess reagent based assay; assay type: functional, cell-based
[3] = test system: BV-2; assay: Antineuroinflammatory activity in LPS induced mouse BV-2 cells assessed as inhibition of NO production at 20 uM pretreated for 4 hrs followed by LPS addition and measured after 24 hrs by griess reagent based assay relative to control; assay type: functional; conditions: time 28 hrs
[4] = test system: BV-2; assay: Antineuroinflammatory activity in LPS induced mouse BV-2 cells assessed as reduction in COX-2 protein expression at 10 uM pretreated for 4 hrs followed by LPS addition and measured after 24 hrs by Western blot analysis; assay type: functional, cell-based; conditions: time 28.0 hrs
[5] = test system: BV-2; assay: Antineuroinflammatory activity in LPS induced mouse BV-2 cells assessed as reduction in iNOS protein expression at 10 uM pretreated for 4 hrs followed by LPS addition and measured after 24 hrs by Western blot analysis; assay type: functional, cell-based; conditions: time 28.0 hrs

IC50 [2] [µM]	SMILES	Activity [1]	further results
	C=C1CC[C@H](C(C)(C)OC(=O)CC)/C=C/[C@@H](C)C(=O)[C@@]2(O)C[C@H](C)[C@H](O)[C@@H]2[C@H]1O	Non-Toxic	
	C=C1[C@@H](O)C[C@H](C(C)(C)OC(=O)CC)/C=C/[C@@H](C)C(=O)[C@@]2(O)C[C@H](C)[C@H](O)[C@@H]2[C@H]1O	Non-Toxic	
	C=C1[C@@H](O)C[C@H](C(C)(C)OC(C)=O)/C=C/[C@@H](C)C(=O)[C@@]2(O)C[C@H](C)[C@H](O)[C@@H]2[C@H]1O	Non-Toxic	
7.7	C=CC(=O)OC(C)(C)[C@@H]1/C=C/[C@@H](C)C(=O)[C@@]2(O)C[C@H](C)[C@H](O)[C@@H]2[C@@H](O)C(=C)[C@@H](O)C1	Non-Toxic	inhibition at 20 µM [3]: 70%
18	C=C1[C@@H](O)C[C@H](C(C)(C)OCCCO)/C=C/[C@@H](C)C(=O)[C@@]2(O)C[C@H](C)[C@H](O)[C@@H]2[C@H]1O	Non-Toxic	inhibition at 20 µM [3]: 56%
	C=C1CC[C@H](C(C)(C)OC)/C=C/[C@@H](C)C(=O)[C@@]2(O)C[C@H](C)[C@H](O)[C@@H]2[C@H]1O	Non-Toxic	
6.2	C=CC(=O)OC(C)(C)[C@@H]1/C=C/[C@@H](C)C(=O)[C@@]2(O)C[C@H](C)[C@H](O)[C@@H]2[C@@H](O)C(=C)CC1	Non-Toxic	Activity [4]: Active; inhibition at 20 µM [3]: 73%; Activity [5]: Active
13	C=C1CC[C@H](C(C)(C)OCCCO)/C=C/[C@@H](C)C(=O)[C@@]2(O)C[C@H](C)[C@H](O)[C@@H]2[C@H]1O	Non-Toxic	inhibition at 20 µM [3]: 63%
	C=C1CC[C@H](C(C)(C)OC(C)=O)/C=C/[C@@H](C)C(=O)[C@@]2(O)C[C@H](C)[C@H](O)[C@@H]2[C@H]1O	Non-Toxic	
	C=C1CC[C@H](C(C)(C)OC(=O)COCC)/C=C/[C@@H](C)C(=O)[C@@]2(O)C[C@H](C)[C@H](O)[C@@H]2[C@H]1O	Non-Toxic	
	C=C1[C@@H](O)C[C@H](C(C)(C)OCC)/C=C/[C@@H](C)C(=O)[C@@]2(O)C[C@H](C)[C@H](O)[C@@H]2[C@H]1O	Non-Toxic	
	C=C1[C@@H](O)C[C@H](C(C)(C)OC)/C=C/[C@@H](C)C(=O)[C@@]2(O)C[C@H](C)[C@H](O)[C@@H]2[C@H]1O	Non-Toxic	
	C=C1[C@@H](O)C[C@H](C(C)(C)OC(=O)COCC)/C=C/[C@@H](C)C(=O)[C@@]2(O)C[C@H](C)[C@H](O)[C@@H]2[C@H]1O	Non-Toxic	
	C=C1CC[C@H](C(C)(C)OCC)/C=C/[C@@H](C)C(=O)[C@@]2(O)C[C@H](C)[C@H](O)[C@@H]2[C@H]1O	Non-Toxic	

SMILES	IC50 [2] [µM]	Activity [1]	further results
O=c1c(O)c(-c2ccc(O)c(O)c2)oc2cc(O)cc(O)c12 [QUERCETIN]	10		
